Source: patent US20120101163A1, “COMPOSITION FOR INHIBITING CANCER METASTASIS” (TAIPEI MEDICAL UNIVERSITY, priority 2010, published 2012)

What was measured:
[1] = tested on: human umbilical vein endothelial cells; assay: Cell viability assay of human umbilical vein endothelial cells; format: cell-based; settings: 24 hours
Protocol: (§1) A medium in a culturing plate containing cells grown covering the whole bottom of the culturing plate, was removed. The cells were washed with 10 ml of PBS, and then suspended and mixed well with 10 ml of medium (a part of the cells need to be suspended with Trypsin-EDTA buffer). The numbers of the cells were calculated by a hemocytometer, and the cells were diluted to an appropriate cell concentration and added into the wells of a 24 well culturing plate by an amount of 500 μl/well. The 24 well culturing plates were placed in an incubator at 37° C. in a humidified atmosphere containing 5% CO2. After the cells were attached onto the bottom of the wells, the medium in each well was removed, and fresh mediums with different concentrations of a test drug were added into wells, respectively (if the cells were suspension cells, the fresh medium may be added into the wells, directly). Then, the 24 well culturing plates were placed in an incubator at 37° C. in a humidified atmosphere containing 5% CO2 for 24 hours. After that, an upper medium in each well was removed. The cells were washed with a PBS buffer twice, and then an MTT solution which was prepared with a medium was added to each well. After the 24 well culturing plates were placed in an incubator at 37° C. for reacting 4-6 hours, an upper medium in each well was removed, and 100 μl of DMSO was added to each well to solubilize the formazan precipitates. After that, an ELISA reader was used to determine the absorbance for each well at 600 nm.
After human umbilical vein endothelial cells were treated with the different concentrations of L-Aspartic acid β-hydroxamate (CH) and different concentrations of L-Glutamic acid γ-hydroxamate (DH) for 24 hours, respectively, the cell viability assays were performed to the treated human umbilical vein endothelial cells and the angiogenesis conditions of the human umbilical vein endothelial cells were recorded. The results of the cell viability assays are shown as FIGS. 13 (A) and 14 (A). Photographs for the human umbilical vein endothelial cells treated with L-Aspartic acid β-hydroxamate (CH) and human umbilical vein endothelial cells treated with L-Glutamic acid γ-hydroxamate (DH) are shown as FIGS. 13 (B) and 14 (B), respectively.

[2] = tested on: human umbilical vein endothelial cells; assay: Tube formation assay (angiogenesis); format: cell-based
Protocol: 13. Tube Formation Assay (Malinda et al., 1999)
1μ-Slide Angiogenesis ibiTreat chambers were coated with 10 μl Matrigel™ Mixtrix and placed in an incubator at 37° C. for 1 hour. 40 μl of a 3×10^5 cells/ml cell suspension was added to each chamber and left still for 20 minutes to let the cells attach to the chamber. After that, the medium in each chamber was removed. Fresh mediums with different concentrations of a test drug were added to the chambers, respectively and placed in an incubator at 37° C. After 18 hours, the angiogenesis appearance in each chamber was observed and photographed for recording.

[3] = tested on: matrix metalloproteinase-9; assay: RT-PCR, MMP-9 gene expression in HT 1080 cells; format: cell-based, Human
Protocol: 7. RNA Extraction and Reverse Transcription-Polymerase Chain Reaction (RT-PCR)
HT 1080 cells with appropriate cell numbers were cultured in 60 mm culturing plates for 6 hours, respectively. After the cells were attached onto the bottom of the plate and formed a monolayer, the medium in the plate was removed. Fresh serum free mediums with different concentrations of a test sample were added to the plates, respectively, and 100 nM PMA was added to each plate to induce the cells to express great quantities of matrix metalloproteinase-2 and matrix metalloproteinase-9, and the plates were placed in a temperature of 37° C. for 6 hours. After that, the total RNA of the cells were extracted with the TRIzol reagent and reverse transcripted by a reverse transcriptase to synthesize cDNA. The synthesize cDNA was used as a template to perform GADPH, matrix metalloproteinase-2 and matrix metalloproteinase-9 PCR amplifications.

HT 1080 cells = assay: Cancer cell survival rate test (MTT); format: cell-based, Human; settings: different concentrations, 24 hours
Protocol: 3. Cancer Cell Survival Rate Test (Lambert et al., 1997; Yang et al., 2006)
as §1, with “After the 24 well culturing plates were placed in an incubator at 37° C. for reacting 4-6 hours, an upper medium in each well was removed, and 100 μl of DMSO was added to each well to solubilize the formazan precipitates.” left out

[4] = tested on: matrix metalloproteinase-2; assay: Western blot analysis, MMP-2 protein expression in HT 1080 cells; format: cell-based, Human
Protocol: HT 1080 cells with appropriate cell numbers were cultured in 60 mm culturing plates for 12 hours, respectively. After the cells were attached onto the bottom of the plate and formed a monolayer, the medium in the plate was removed. Fresh serum-free mediums with different concentrations of a test drug were added to the plates, respectively, and 100 nM PMA was added to each plate to induce the cells to express great quantities of matrix metalloproteinase-2 and matrix metalloproteinase-9, and the plates were placed in a temperature of 37° C. for 24 hours. A quantitatively cultured supernatant in each plate was centrifuged or protein was extracted from cells in each plate to be quantitated, and then an SDS-sample buffer containing 2-ME was added therein to form a mixture. The mixture was injected into a 10% SDS-polyacrylamide gel […] and then electrophoresed. After electrophoresis was completed, the proteins in the gel were transferred to a PVDF membrane. The PVDF membrane was equilibrated with gelatin-NET at room temperature for 30 minutes. […]

## NC(CCC(=O)NO)C(=O)O [DH, L-Glutamic acid γ-hydroxamate]
[1]; 0.25 mM
  cytotoxicity to human umbilical vein endothelial cells: no cytotoxicity
[1]; 0.75 mM
  viability of human umbilical vein endothelial cells: slight decreases
[2]; about 0.1-1.5 mM, stated as embodiment
  inhibition rate to angiogenesis: 10-90%
[2]; increasing concentrations
  angiogenesis compared with the control group: significantly inhibited
[3]; HT 1080 cells, 0.4, 0.8, 1.2, and 1.6, 6 hours, RT-PCR
  gene expression (mRNA) of matrix metalloproteinase-9: decreased
[3]; about 0.1-2 mM, stated as embodiment, 'and/or' MMP-2
  inhibition rate to the gene transcriptional expression of matrix metalloproteinase-9 of a cancer cell: 20-80%
HT 1080 cells
  cytotoxicity to HT 1080 cells: no significant cytotoxicity
[4]; 0.4, 0.8, 1.2, and 1.6, 24 hours, Western blotting
  protein expression amount of matrix metalloproteinase-2 secreted out of and left in HT 1080 cells: all decreased
[4]; about 0.1-2 mM, stated as embodiment, 'and/or' MMP-9
  inhibition rate to the protein expression amount of metalloproteinase-2 of a cancer cell: 40-90%
